In patent US9777000B2, “Pyrazole derivative” (MOCHIDA PHARMACEUTICAL CO., LTD., priority 2013, dated 2017):

target: human PDE10 (Homo sapiens (Human), UniProt Q9Y233); assay: Evaluation of enzyme inhibitory activity: human PDE10 inhibitory effect (IMAP TR-FRET); format: biochemical; conditions: cAMP substrate
Procedure: (Evaluation of Enzyme Inhibitory Activity: Human PDE10 Inhibitory Effect)
IMAP TR-FRET Phosphodiersterase Evaluation Assay Kit (Molecular Device) was used for the measurement. Ten μL of a diluted test compound having each concentration and 5 μL of the enzyme PDE10 (BPA Bioscience) that had been diluted to 2 ng/mL with 1×IMAP Reaction Buffer (prepared with 5×included with the kit, 10 mM Tris-HCl, pH=7.2, 10 mM MgCl2, 0.05% NaN3, and 0.1% BSA) containing 0.1% BSA were added to a 384-well plate (Corning). The obtained mixture was then pre-incubated at room temperature for 5 minutes. Thereafter, 5 μL of cAMP substrate solution which was included with the kit and diluted to 400 nM with 1×IMAP Reaction Buffer containing 0.1% BSA, was added to the reaction solution, and the obtained mixture was reacted at room temperature for 60 minutes. Thereafter, 60 μL of an IMAP TR-FRET Binding solution included with the kit was further added to the reaction solution, and the obtained mixture was then left for 3 hours or more. Subsequently, using ARVO SX (PerkinElmer), the fluorescent intensity of Terbium (Emission=490 nm) and TR-FRET (Emission=520 nm) in the reaction solution were measured at an excitation wavelength of 340 nm, so as to calculate the amount of the generated 5′-AMP. The count of a well to which a solvent had been added instead of the test compound was set at 0%, and the count of a well to which the enzyme PDE10 had not been added was set at 100%. Thus, the inhibitory activity of each test compound was calculated.
The PDE10 inhibitory activity of the test compound was indicated with an IC50 value. […] The test compounds are shown in Table 3 (Table 3-1 and Table 3-2).

human PDE10, sequence (Q9Y233 whole entry): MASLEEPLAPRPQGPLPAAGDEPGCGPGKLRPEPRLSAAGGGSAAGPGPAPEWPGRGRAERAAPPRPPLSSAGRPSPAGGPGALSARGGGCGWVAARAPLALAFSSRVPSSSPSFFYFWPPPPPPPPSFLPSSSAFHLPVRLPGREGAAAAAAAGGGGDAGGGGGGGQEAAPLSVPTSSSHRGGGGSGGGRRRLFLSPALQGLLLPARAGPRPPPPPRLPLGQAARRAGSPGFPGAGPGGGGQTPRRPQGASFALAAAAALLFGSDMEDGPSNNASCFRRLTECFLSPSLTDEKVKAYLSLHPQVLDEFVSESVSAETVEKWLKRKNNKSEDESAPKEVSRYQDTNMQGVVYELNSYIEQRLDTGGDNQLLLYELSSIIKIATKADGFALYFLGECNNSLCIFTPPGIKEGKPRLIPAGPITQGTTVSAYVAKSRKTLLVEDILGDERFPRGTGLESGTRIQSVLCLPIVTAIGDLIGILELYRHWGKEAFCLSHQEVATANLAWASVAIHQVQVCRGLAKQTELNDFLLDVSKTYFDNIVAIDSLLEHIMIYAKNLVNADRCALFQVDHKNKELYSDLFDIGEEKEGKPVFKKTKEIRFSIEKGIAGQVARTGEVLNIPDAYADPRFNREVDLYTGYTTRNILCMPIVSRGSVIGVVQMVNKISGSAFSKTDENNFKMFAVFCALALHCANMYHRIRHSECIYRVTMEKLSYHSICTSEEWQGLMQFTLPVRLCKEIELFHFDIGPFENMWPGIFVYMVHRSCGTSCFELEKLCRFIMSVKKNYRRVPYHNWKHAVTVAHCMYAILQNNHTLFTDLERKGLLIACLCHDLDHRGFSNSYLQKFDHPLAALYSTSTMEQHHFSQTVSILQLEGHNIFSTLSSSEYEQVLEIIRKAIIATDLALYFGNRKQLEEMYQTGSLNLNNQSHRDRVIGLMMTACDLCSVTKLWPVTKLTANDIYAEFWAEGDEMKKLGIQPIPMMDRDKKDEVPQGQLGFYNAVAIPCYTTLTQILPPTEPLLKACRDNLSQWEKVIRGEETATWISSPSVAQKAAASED

Compound	IC50 [nM]
Cn1ncc(-c2nc(C(F)(F)F)cs2)c1C(=O)NC1CCn2c(nc(-c3ccccc3)c2F)C1 (stereo not shown) [Example 2.19, N-(3-fluoro-2-phenyl-5,6,7,8-tetrahydroimidazo[1,2-a]pyridin-7-yl)-1-methyl-4-(4-(trifluoromethyl)thiazol-2-yl)-1H-pyrazole-5-carboxamide]	< 5
Cn1ncc(-c2nc(C(F)(F)F)cs2)c1C(=O)Nc1ccn2nc(N3CCCC3)nc2c1 [Example 4.34, 1-methyl-N-(2-(pyrrolidin-1-yl)-[1,2,4]triazolo[1,5-a]pyridin-7-yl)-4-(4-(trifluoromethyl)thiazol-2-yl)-1H-pyrazole-5-carboxamide]	< 5
Cc1ncnc(-c2cnn(C)c2C(=O)Nc2cc3nc(-c4ccccc4)nn3cc2F)c1F [Example 3.38, N-(6-fluoro-2-phenyl-[1,2,4]triazolo[1,5-a]pyridin-7-yl)-4-(5-fluoro-6-methylpyrimidin-4-yl)-1-methyl-1H-pyrazole-5-carboxamide]	< 5
COc1ccnc(-c2cnn(C)c2C(=O)Nc2cc3nc(-c4ccccc4)nn3cc2F)c1 [Example 3.52, N-(6-fluoro-2-phenyl-[1,2,4]triazolo[1,5-a]pyridin-7-yl)-4-(4-methoxypyridin-2-yl)-1-methyl-1H-pyrazole-5-carboxamide]	< 5
C[C@@H]1CN(c2nc3cc(NC(=O)c4c(-c5nc(C(F)F)cs5)cnn4C)ccn3n2)C[C@H](C)O1 [Example 3.19, 4-(4-(difluoromethyl)thiazol-2-yl)-N-(2-((2S,6R)-2,6-dimethylmorpholino)-[1,2,4]triazolo[1,5-a]pyridin-7-yl)-1-methyl-1H-pyrazole-5-carboxamide]	< 5
COc1ccnc(-c2cnn(C)c2C(=O)Nc2ccn3nc(N4CCCC4)nc3c2)c1 [Example 4.28, 4-(4-methoxypyridin-2-yl)-1-methyl-N-(2-(pyrrolidin-1-yl)-[1,2,4]triazolo[1,5-a]pyridin-7-yl)-1H-pyrazole-5-carboxamide]	< 5
COc1ncnc(-c2cnn(C)c2C(=O)Nc2cc3nc(-c4ccccc4)nn3cc2F)c1C [Example 3.31, N-(6-fluoro-2-phenyl-[1,2,4]triazolo[1,5-a]pyridin-7-yl)-4-(6-methoxy-5-methylpyrimidin-4-yl)-1-methyl-1H-pyrazole-5-carboxamide]	< 5
Cc1ccc(-c2cnn(C)c2C(=O)Nc2cc3nc(-c4ccccc4)nn3cc2F)nc1 [Example 3.51, N-(6-fluoro-2-phenyl-[1,2,4]triazolo[1,5-a]pyridin-7-yl)-1-methyl-4-(5-methylpyridin-2-yl)-1H-pyrazole-5-carboxamide]	< 5
Cn1ncc(-c2ncncc2Cl)c1C(=O)Nc1cc2nc(-c3ccccc3)nn2cc1F [Example 3.29, 4-(5-chloropyrimidin-4-yl)-N-(6-fluoro-2-phenyl-[1,2,4]triazolo[1,5-a]pyridin-7-yl)-1-methyl-1H-pyrazole-5-carboxamide]	< 5
Cc1cc(C)nc(-c2cnn(C)c2C(=O)Nc2cc3nc(-c4ccccc4)nn3cc2F)c1 [Example 3.11, 4-(4,6-dimethylpyridin-2-yl)-N-(6-fluoro-2-phenyl-[1,2,4]triazolo[1,5-a]pyridin-7-yl)-1-methyl-1H-pyrazole-5-carboxamide]	< 5
Cn1ncc(-c2nc(C(F)(F)F)cs2)c1C(=O)NC1CCn2cc(-c3ccc(F)cc3)nc2C1 (stereo not shown) [Example 2.29, N-(2-(4-fluorophenyl)-5,6,7,8-tetrahydroimidazo[1,2-a]pyridin-7-yl)-1-methyl-4-(4-(trifluoromethyl)thiazol-2-yl)-1H-pyrazole-5-carboxamide]	< 5
Cc1cccc(-c2cnn(C)c2C(=O)Nc2ccn3nc(N4CCC[C@@H]4C)nc3c2)n1 [Example 4.7, (S)-1-methyl-4-(6-methylpyridin-2-yl)-N-(2-(2-methylpyrrolidin-1-yl)-[1,2,4]triazolo[1,5-a]pyridin-7-yl)-1H-pyrazole-5-carboxamide]	< 5

Continued, values first:

IC50 [nM]	Compound
< 5	COc1cccc(-c2cnn(C)c2C(=O)NC2CCn3cc(-c4ccccc4)nc3C2)n1 (stereo not shown) [Example 2.11, 4-(6-methoxypyridin-2-yl)-1-methyl-N-(2-phenyl-5,6,7,8-tetrahydroimidazo[1,2-a]pyridin-7-yl)-1H-pyrazole-5-carboxamide]
< 5	Cc1ccnc(-c2cnn(C)c2C(=O)NC2CCn3cc(-c4ccccc4)nc3C2)c1 (stereo not shown) [Example 2.22, 1-methyl-4-(4-methylpyridin-2-yl)-N-(2-phenyl-5,6,7,8-tetrahydroimidazo[1,2-a]pyridin-7-yl)-1H-pyrazole-5-carboxamide]
< 5	COc1nccc(-c2cnn(C)c2C(=O)Nc2cc3nc(-c4ccccc4)nn3cc2F)n1 [Example 3.26, N-(6-fluoro-2-phenyl-[1,2,4]triazolo[1,5-a]pyridin-7-yl)-4-(2-methoxypyrimidin-4-yl)-1-methyl-1H-pyrazole-5-carboxamide]
< 5	Cn1ncc(-c2nc(C(F)F)c(Cl)s2)c1C(=O)NC1CCn2nc(-c3ccccc3)nc2C1 (stereo not shown) [Example 5.29, 4-(5-chloro-4-(difluoromethyl)thiazol-2-yl)-1-methyl-N-(2-phenyl-5,6,7,8-tetrahydro-[1,2,4]triazolo[1,5-a]pyridin-7-yl)-1H-pyrazole-5-carboxamide]
< 5	Cn1ncc(-c2nc(C(F)F)cs2)c1C(=O)NC1CCn2nc(-c3ccccc3)nc2C1 (stereo not shown) [Example 5.17, 4-(4-(difluoromethyl)thiazol-2-yl)-1-methyl-N-(2-phenyl-5,6,7,8-tetrahydro-[1,2,4]triazolo[1,5-a]pyridin-7-yl)-1H-pyrazole-5-carboxamide]
< 5	Cn1cnc(-c2cnn(C)c2C(=O)Nc2cc3nc(-c4ccccc4)nn3cc2F)c1 [Example 3.48, N-(6-fluoro-2-phenyl-[1,2,4]triazolo[1,5-a]pyridin-7-yl)-1-methyl-4-(1-methyl-1H-imidazol-4-yl)-1H-pyrazole-5-carboxamide]
< 5	Cn1ncc(-c2nc(C(F)F)cs2)c1C(=O)NC1CCn2cc(-c3ccc(F)cc3)nc2C1 (stereo not shown) [Example 2.28, 4-(4-(difluoromethyl)thiazol-2-yl)-N-(2-(4-fluorophenyl)-5,6,7,8-tetrahydroimidazo[1,2-a]pyridin-7-yl)-1-methyl-1H-pyrazole-5-carboxamide]
< 5	CCc1sc(-c2cnn(C)c2C(=O)NC2CCn3nc(-c4ccccc4)nc3C2)nc1C(F)F (stereo not shown) [Example 5.6, 4-(4-(difluoromethyl)-5-ethylthiazol-2-yl)-1-methyl-N-(2-phenyl-5,6,7,8-tetrahydro-[1,2,4]triazolo[1,5-a]pyridin-7-yl)-1H-pyrazole-5-carboxamide]
< 5	Cc1cc(C)nc(-c2cnn(C)c2C(=O)Nc2cc3nc(N4CC[C@H](F)C4)nn3cc2F)c1 [Example 4.24, (S)-4-(4,6dimethylpyridin-2-yl)-N-(6-fluoro-2-(3-fluoropyrrolidin-1-yl)-[1,2,4]triazolo[1,5-a]pyridin-7-yl)-1-methyl-1H-pyrazole-5-carboxamide]
< 5	Cc1cncc(-c2cnn(C)c2C(=O)Nc2ccn3nc(N4CCCC4)nc3c2)n1 [Example 4.29, 1-methyl-4-(6-methylpyrazin-2-yl)-N-(2-(pyrrolidin-1-yl)-[1,2,4]triazolo[1,5-a]pyridin-7-yl)-1H-pyrazole-5-carboxamide]
< 5	COc1cccnc1-c1cnn(C)c1C(=O)Nc1cc2nc(-c3ccccc3)nn2cc1F [Example 3.7, N-(6-fluoro-2-phenyl-[1,2,4]triazolo[1,5-a]pyridin-7-yl)-4-(3-methoxypyridin-2-yl)-1-methyl-1H-pyrazole-5-carboxamide]
< 5	Cc1cncc(-c2cnn(C)c2C(=O)NC2CCn3cc(-c4ccccc4)nc3C2)n1 (stereo not shown) [Example 2.13, 1-methyl-4-(6-methylpyrazin-2-yl)-N-(2-phenyl-5,6,7,8-tetrahydroimidazo[1,2-a]pyridin-7-yl)-1H-pyrazole-5-carboxamide]
< 5	Cc1cnc(-c2cnn(C)c2C(=O)NC2CCn3cc(-c4ccccc4)nc3C2)s1 (stereo not shown) [Example 2.15, 1-methyl-4-(5-methylthiazol-2-yl)-N-(2-phenyl-5,6,7,8-tetrahydroimidazo[1,2-a]pyridin-7-yl)-1H-pyrazole-5-carboxamide]
< 5	Cc1sc(-c2cnn(C)c2C(=O)NC2CCn3cc(-c4ccccc4)nc3C2)nc1C(F)F (stereo not shown) [Example 2.6, 4-(4-(difluoromethyl)-5-methylthiazol-2-yl)-1-methyl-N-(2-phenyl-5,6,7,8-tetrahydroimidazo[1,2-a]pyridin-7-yl)-1H-pyrazole-5-carboxamide]
< 5	Cc1sc(-c2cnn(C)c2C(=O)Nc2ccn3nc(N4CC[C@H](F)C4)nc3c2)nc1C(F)F [Example 4.23, (S)-4-(4-(difluoromethyl)-5-methylthiazol-2-yl)-N-(2-(3-fluoropyrrolidin-1-yl)-[1,2,4]triazolo[1,5-a]pyridin-7-yl)-1-methyl-1H-pyrazole-5-carboxamide]
< 5	Cc1cnnc(-c2cnn(C)c2C(=O)Nc2cc3nc(-c4ccccc4)nn3cc2F)c1 [Example 3.46, N-(6-fluoro-2-phenyl-[1,2,4]triazolo[1,5-a]pyridin-7-yl)-1-methyl-4-(5-methylpyridazin-3-yl)-1H-pyrazole-5-carboxamide]
